# Data reported in patent publication US12636370B2, “Combination therapy for treatment of cancer” (Institute For Cancer Research, priority 2019, dated 2026).
# Legend:
# Assay type in all cases: cell-based
# OVCAR8 MZ1-R cells [1] = experiment: CellTiter-Glo cell viability, OVCAR8 MZ1-R cells; details: escalating doses, 5 days; for cell viability of MZ1-R cells compared with parental cells: OVCAR8 MZ1-R; for sensitivity of MZ1-R cells relative to JQ1-R cells or parental cells: OVCAR8, inhibitor screen
# OVCAR8 JQ1-R cells [2] = experiment: CellTiter-Glo cell viability, OVCAR8 JQ1-R cells; details: escalating doses, 5 days
# OVCAR8 ARV-R cells [3] = experiment: CellTiter-Glo cell viability, OVCAR8 ARV-R cells; details: escalating doses, 5 days
# [4] = test system: BET proteins (BRD2, BRD3, BRD4); experiment: Western blot of BET proteins and BRD4 targets, OVCAR8 MZ1-R cells; details: Western blot
# [5] = test system: BET proteins (BRD2, BRD3, BRD4); experiment: Western blot of BET proteins, OVCAR8 ARV-R cells
# [6] = test system: INSR and downstream MTOR, AKT and MAPK signaling; experiment: Kinase signaling in BBD-R cells (MIB-MS, phospho-blot); details: for phosphorylation of P70S6K (T359): BBD-R cells (MZ1-R, ARV-R), 1 μM, 4 hours
# Procedure: Reduced MIB-binding of kinases involved in cell cycle (WEE1, CHEK1, CDK2, CDK6 and PLK1), as well as kinases required for translation (EIF2AK1, EIF2AK2, and EIF2AK4) were also observed following GSK529A treatment. […] Enrichment maps of pathways repressed by INSR inhibition generated from MIB-MS profiles of OVCAR8 cells treated with GSK529A (1 μM) treatment for 48 hours. Statistical differences in protein log 2 LFQ z-scores comparing GSK529A to control treated MZ1-R cells was determined by paired T-Test Benjamini- Hochberg adjusted p values at FDR of <0.05 using Perseus Software. […] Enrichment maps were generated in Cytoscape using the Enrichment Map app v2.2.1. (data not shown).
# BRD2, BRD3 or BRD4 RNA = experiment: qRT-PCR of BRD RNA levels, OVCAR8 MZ1-R cells; details: 1 μM, 48 hours
# [7] = test system: KURAMOCHI, COV362 and OVCAR5 MZ1-R cells; experiment: CellTiter-Glo cell viability, KURAMOCHI, COV362 and OVCAR5 MZ1-R cells; details: COV362 and OVCAR5, escalating doses, 5 days
# [8] = test system: BET proteins (BRD2, BRD4); experiment: Western blot of BET proteins, KURAMOCHI, COV362 and OVCAR5 MZ1-R cells
# OVCAR5 JQ1-R cells = experiment: Growth curves, OVCAR5 JQ1-R cells
# [9] = test system: BET proteins (BRD2, BRD3, BRD4); experiment: Western blot of BET protein levels, OVCAR8 parental cells
# OVCAR8 cells [10] = experiment: Single-run proteome analysis and RNA-seq, OVCAR8 cells; details: 48 hours, single-run proteome analysis
# Procedure: Enrichment maps of pathways repressed by short-term BBD generated from single-run proteome profiles of OVCAR8 cells treated with BBDs (MZ1 or ARV825) for 48 hours were prepared (data not shown). Statistical differences in protein log 2 LFQ z-scores comparing BBDs or BBIs to control treated cells was determined by paired T-Test Benjamini-Hochberg adjusted p values at FDR of <0.05 using Perseus Software. […] Enrichment maps were generated in Cytoscape using the Enrichment Map app v2.2.1. […] Statistical differences in protein log 2 LFQ z-scores comparing BBDs or BBIs to control treated cells was determined.
# BET proteins, FOSL1, MYC = experiment: Western blot of BET proteins and BRD4 targets, JQ1-R cells
# OVCAR8 MZ1-R cells [11] = experiment: Apoptosis by Western blot, OVCAR8 MZ1-R cells
# OVCAR8 JQ1-R cells [12] = experiment: Apoptosis by cleaved PARP Western blot, OVCAR8 JQ1-R cells
# OVCAR8 cells [13] = experiment: CellTiter-Glo cell viability, OVCAR8 parental cells; details: dose escalation, 5 days
# [14] = test system: translation markers, RNA pol II, MYC; experiment: Western blot of translation, BRD4-targets and MYC signaling, OVCAR8 cells; details: 500 nM, 48 hours
# OVCAR8 ARV-R cells [15] = experiment: Apoptosis by cleaved PARP Western blot, OVCAR8 ARV-R cells
smiles,measurement,setting,value
COC[C@@H](C)NC1CCC(Nc2cc(-c3cccc(NCC4(C#N)CCOCC4)n3)c(Cl)cn2)CC1 (stereo partly shown) [NVP-2],cell viability of MZ1-R cells compared with parental cells,OVCAR8 MZ1-R cells [1],more sensitive
same,cell viability of JQ1-R cells,OVCAR8 JQ1-R cells [2],more sensitive
O=C(O)c1ccc2c(c1)nc(Nc1cccc(Cl)c1)c1ccncc12 [Cx-4945],cell viability of MZ1-R cells compared with parental cells,OVCAR8 MZ1-R cells [1],more sensitive
same,cell viability of JQ1-R cells,OVCAR8 JQ1-R cells [2],more sensitive
O=C(c1cc(Cc2n[nH]c(=O)c3ccccc23)ccc1F)N1CCN(C(=O)C2CC2)CC1 [olaparib],cell viability of MZ1-R cells compared with parental cells,OVCAR8 MZ1-R cells [1],more sensitive
same,cell viability of JQ1-R cells,OVCAR8 JQ1-R cells [2],more sensitive
CNC(=O)c1ccccc1Nc1cc(Nc2ccc(N3CCOCC3)cc2OC)ncc1C(F)(F)F [PND-1186],sensitivity of MZ1-R cells relative to JQ1-R cells or parental cells,OVCAR8 MZ1-R cells [1],more sensitive
CS(=O)(=O)CCNCc1ccc(-c2ccc3ncnc(Nc4ccc(OCc5cccc(F)c5)c(Cl)c4)c3c2)o1 [lapatinib],cell viability of ARV-R cells compared with parental cells,OVCAR8 ARV-R cells [3],reduced cell viability more than in parental cells
same,BET protein levels,[4],reduced BRD2 and BRD4 levels
same,BET protein levels,[5],reduced BRD2 and BRD4 levels
same,phosphorylation of P70S6K (T359),[6],reduced MTOR-mediated phosphorylation of P70S6K (T359)
same,"BRD2, BRD3 or BRD4 RNA levels","BRD2, BRD3 or BRD4 RNA",unaffected
same,cell viability / growth of MZ1-R cells compared with parental cells,[7],significantly blocked cell growth to a greater extent than parental cells
same,BET protein levels,[8],reduced BRD2 and BRD4 proteins
same,growth inhibition,OVCAR5 JQ1-R cells,minimal growth inhibition
NC1(c2ccc(-c3nc4ccn5c(=O)[nH]nc5c4cc3-c3ccccc3)cc2)CCC1 [MK-2206],sensitivity of MZ1-R cells relative to JQ1-R cells or parental cells,OVCAR8 MZ1-R cells [1],more sensitive
same,cell viability of ARV-R cells compared with parental cells,OVCAR8 ARV-R cells [3],reduced cell viability more than in parental cells
CCC(=O)N1CCN(c2ccc(-n3c(=O)ccc4cnc5ccc(-c6cnc7ccccc7c6)cc5c43)cc2C(F)(F)F)CC1 [Torin-1],BET protein levels,[4],reduced BRD2 and BRD4 levels
same,BET protein levels,[5],reduced BRD2 and BRD4 levels
same,phosphorylation of P70S6K (T359),[6],reduced MTOR-mediated phosphorylation of P70S6K (T359)
Cc1sc2c(c1C)C(c1ccc(Cl)cc1)=N[C@@H](CC(=O)Nc1ccc(OCCOCCOCCOCCNc3cccc4c3C(=O)N(C3CCC(=O)NC3=O)C4=O)cc1)c1nnc(C)n1-2 (stereo partly shown) [ARV825],BET protein levels,[9],degraded BET proteins in a concentration-dependent manner
same,global protein level changes,OVCAR8 cells [10],uniquely downregulated proteins involved in ribosome and translation signaling
same,cell viability of MZ1-R cells compared with parental cells,OVCAR8 MZ1-R cells [1],inhibited cell viability
same,cell viability of ARV-R cells compared with parental cells,OVCAR8 ARV-R cells [3],rightward shift
same,cell viability of JQ1-R cells,OVCAR8 JQ1-R cells [2],inhibited cell viability
same,BET protein levels,[4],reduced BET proteins
same,BET protein levels,[5],"insufficient to degrade BRD2, BRD3 or BRD4"
same,BET protein levels,"BET proteins, FOSL1, MYC",degraded BET proteins
same,"BRD4 target (FOSL1, MYC) protein levels","BET proteins, FOSL1, MYC",reduced MYC/FOSL1 protein levels
same,apoptosis,OVCAR8 MZ1-R cells [11],promoted apoptosis
same,apoptosis,OVCAR8 JQ1-R cells [12],induced apoptosis
Cc1sc2c(c1C)C(c1ccc(Cl)cc1)=N[C@@H](CC(=O)OC(C)(C)C)c1nnc(C)n1-2 [JQ1],GI50,OVCAR8 cells [13],133 nM
same,RNA pol II (S2) phosphorylation,[14],not observed with JQ1
same,cell viability of MZ1-R cells compared with parental cells,OVCAR8 MZ1-R cells [1],reduced cell viability to a greater extent than parental cells
same,cell viability of ARV-R cells compared with parental cells,OVCAR8 ARV-R cells [3],reduced cell viability to a greater extent than parental cells
same,cell viability of JQ1-R cells,OVCAR8 JQ1-R cells [2],unaffected by increasing doses of JQ1
same,"BRD4 target (FOSL1, MYC) protein levels","BET proteins, FOSL1, MYC",failed to reduce BRD4 target FOSL1
CNc1ncc2cc(-c3cc(NC(=O)NCCC(C)(C)C)c(F)cc3C)c(C)nc2n1 [LY3009120],cell viability of JQ1-R cells,OVCAR8 JQ1-R cells [2],most profound impact on JQ1-R cell viability
CS(=O)(=O)N1CCN(Cc2cc3nc(-c4cccc5[nH]ncc45)nc(N4CCOCC4)c3s2)CC1 [GDC-0941],cell viability of MZ1-R cells compared with parental cells,OVCAR8 MZ1-R cells [1],more sensitive
same,cell viability of JQ1-R cells,OVCAR8 JQ1-R cells [2],more sensitive
CCN(CCO)CCCC(C)Nc1ccnc2cc(Cl)ccc12 (stereo not shown) [hydroxychloroquine],cell viability of MZ1-R cells compared with parental cells,OVCAR8 MZ1-R cells [1],more sensitive
same,cell viability of JQ1-R cells,OVCAR8 JQ1-R cells [2],more sensitive
CC(C)C[C@H](NC(=O)[C@H](Cc1ccccc1)NC(=O)c1cnccn1)B(O)O [bortezomib],phosphorylated RNA pol II (S2),"[6]; OVCAR8 MZ1-R cells, 48 hour RAD001 treatment, with or without bortezomib",could be reversed by bortezomib treatment
COc1ncccc1-c1cnn2ccc(N3CCN(C(=O)OC(C)C)CC3)nc12 [LP-935509],sensitivity of MZ1-R cells relative to JQ1-R cells or parental cells,OVCAR8 MZ1-R cells [1],more sensitive
same,cell viability of ARV-R cells compared with parental cells,OVCAR8 ARV-R cells [3],reduced cell viability more than in parental cells
Cc1ncsc1-c1ccc([C@H](C)NC(=O)[C@@H]2C[C@@H](O)CN2C(=O)[C@@H](NC(=O)COCCCOCCNC(=O)C[C@@H]2N=C(c3ccc(Cl)cc3)c3c(sc(C)c3C)-n3c(C)nnc32)C(C)(C)C)cc1 [ARV-771],cell viability of MZ1-R cells compared with parental cells,OVCAR8 MZ1-R cells [1],cross-resistant
same,cell viability of ARV-R cells compared with parental cells,OVCAR8 ARV-R cells [3],"failed to reduce BET proteins, block growth or induce apoptosis"
same,BET protein levels,[5],"failed to reduce BET proteins, block growth or induce apoptosis"
same,apoptosis,OVCAR8 ARV-R cells [15],"failed to reduce BET proteins, block growth or induce apoptosis"
